Here are results for one compound from publication PMC10776879, “In vitro screening of topical formulation excipients for epithelial toxicity in cancerous and non-cancerous cell lines” (EXCLI Journal, 2023).

Experiment [1] concerns human cervical cancer (HeLa) cells. Also noted: method as in Ujhelyi et al., 2012[89], 2015[90]. To be noted: HeLa cell line; ref Ujhelyi et al., 2012[89], 2015[90]; cited from earlier work.
Experiment [2] concerns WM1366 human melanoma cells. As to the kind of experiment: Crystal violet (CV) cell viability assay. It counts as cell-based. To be noted: Homo sapiens, 24 h exposure, read-out: IC50 (μg/ml) [Mean, Range] WM1366, CV. On the procedure:
(§1) Cells were seeded into the 96-well cell culture plates in 100 μl of complete culture medium at the initial density of 2x10^4 (cells/ml). Cells were incubated under 5 % CO2 at 37 °C for 24 hours for adhering to the wells and medium was then replaced with 100 μl of fresh medium containing excipient solution at the required final concentration. Each concentration was tested in minimum of 5 replicates and control cells were exposed to the culture medium only. Fixed cells were stained with crystal violet dye solution to screen cell viability under treatment conditions. Cells are fixed by 4 % (v/v) paraformaldehyde in PBS for 10 minutes. Crystal violet assay of 0.05 % (v/v) is prepared by 1:4 dilution of the crystal violet stock solution (v/v) in 4 % (v/v) paraformaldehyde. The fixed cells were washed twice with PBS and covered with 250 µl crystal violet working solution. The plates were placed on a bench rocker with medium frequency (20 oscillations per minute) at room temperature for 20 minutes. The plates were emptied and washed under indirect stream of tap water for three times and inverted on filter paper. The plates were taped gently on the paper to remove any remaining liquid and air dried with no lid for minimum of 2 hr at room temperature. After the plates were photographed, blue dye was dissolved in DMSO and the optical density of each well was measured at 570 nm (OD570) with a plate reader (Multiskan™ FC Microplate Photometer). The effect of each treatment was calculated as the percentage of crystal viable staining of surviving attached cells, against the negative control (cells treated with culture medium only). To assess the excipients' cytotoxicity, the dose-response effect of each excipient was measured against the cell lines. The cytotoxicity value for each concentration of the excipients was expressed as percentage of viability against the untreated control wells (the optical density of untreated cells was set at 100 % viability) to construct dose-response curves. […] All IC50 values were expressed as µg/ml. The percentage viability was calculated as follows: […]

The test system of experiment [3] is D24 human melanoma cells. As to the kind of experiment: Crystal violet (CV) cell viability assay. It counts as cell-based. To be noted: Homo sapiens, 24 h exposure, read-out: IC50 (μg/ml) [Mean, Range] D24, CV. On the procedure:
as §1

Experiment [4] concerns HaCaT human keratinocytes. As to the kind of experiment: Crystal violet (CV) cell viability assay. In kind it is cell-based. To be noted: Homo sapiens, 24 h exposure, read-out: IC50 (μg/ml) [Mean, Range] HaCaT, CV. As for the experimental part: as §1
For experiment [5], the system named is WM164 human melanoma cells. As to the kind of experiment: Crystal violet (CV) cell viability assay. To be noted: Homo sapiens, 24 h exposure, read-out: IC50 (μg/ml) [Mean, Range] WM164, CV. It counts as cell-based. As for the experimental part:
as §1

Experiment [6] deals with WM1366 human melanoma cells. As to the kind of experiment: MTT cell viability assay. To be noted: Homo sapiens, 24 h exposure, read-out: IC50 (μg/ml) [Mean, Range] WM1366, MTT. In kind it is cell-based. As for the experimental part:
(§2) Cells were seeded into the 96-well cell culture plates in 100 μl of complete culture medium at the initial density of 2x10^4 (cells/ml). Cells were incubated under 5 % CO2 at 37 °C for 24 hours for adhering to the wells and medium was then replaced with 100 μl of fresh medium containing excipient solution at the required final concentration. Each concentration was tested in minimum of 5 replicates and control cells were exposed to the culture medium only.
(§3) After cell incubation for 24 h, the excipient-containing medium was removed, and 100 μl of MTT in PBS (5 mg/ml) diluted 1:10 in medium was then added in the dark. Plates were further incubated for 2-3 h, after which time the medium was removed and the purple formazan product was dissolved by adding 200 μl of DMSO to each well. Plates were then placed in a shaker for 5 min at room temperature and the absorbance of the resulting solutions was measured at 570 nm using a microplate reader (Multiskan™ FC Microplate Photometer). The effect of each treatment was calculated as the percentage of tetrazolium salt reduction by viable cells against the negative control (cells treated with culture medium only).
(§4) To assess the excipients' cytotoxicity, the dose-response effect of each excipient was measured against the cell lines. The cytotoxicity value for each concentration of the excipients was expressed as percentage of viability against the untreated control wells (the optical density of untreated cells was set at 100 % viability) to construct dose-response curves.
(§5) All IC50 values were expressed as µg/ml. The percentage viability was calculated as follows: […]
(In general: Formazan colour is commonly taken as a measure of viable cells.)

The test system of experiment [7] is D24 human melanoma cells. As to the kind of experiment: MTT cell viability assay. It counts as cell-based. To be noted: Homo sapiens, 24 h exposure, read-out: IC50 (μg/ml) [Mean, Range] D24, MTT. As for the experimental part:
as §2, §3, §4, §5

Experiment [8] deals with HaCaT human keratinocytes. As to the kind of experiment: MTT cell viability assay. In kind it is cell-based. To be noted: Homo sapiens, 24 h exposure, read-out: IC50 (μg/ml) [Mean, Range] HaCaT, MTT. On the procedure: as §2, §3, §4, §5
Experiment [9] has as its system WM164 human melanoma cells. As to the kind of experiment: MTT cell viability assay. It counts as cell-based. To be noted: Homo sapiens, 24 h exposure, read-out: IC50 (μg/ml) [Mean, Range] WM164, MTT. On the procedure:
as §2, §3, §4, §5

Experiment [10] relates to WM1366 human melanoma cells. As to the kind of experiment: Trypan blue (TB) exclusion assay, membrane integrity. In kind it is cell-based. To be noted: 24 h exposure, read-out: IC50 (μg/ml) WM1366, TB. On the procedure: (§6) The dye exclusion test is routinely applied in laboratories to assess the number of live cells present in a cell suspension. […] In this assay a cell suspension is mixed with dye and then visualized to distinguish the cells that take up dye from the ones that exclude it. Viable cells will be seen as a clear cytoplasm whereas a dead cell will appear with a blue cytoplasm (Strober, 2001[86]). After cell incubation for 24 h, the excipient-containing medium was removed, and cells were trypsinized using trypsin-EDTA to obtain cell suspension. 20 µl of trypan blue dye was mixed thoroughly with 20 µl cell suspension by pipetting ups and downs and loaded into the cell counting slide. Cell numbers were detected by the automated cell counting machine. To find the total number of viable cells in one ml of aliquot, the number of viable cells was multiplied by 2 (the dilution factor for trypan blue). Viable cell percentage was calculated as follows: […]

For experiment [11], the system named is D24 human melanoma cells. Described as above. In kind it is cell-based. To be noted: 24 h exposure, read-out: IC50 (μg/ml) D24, TB. On the procedure:
as §6

For experiment [12], the system named is HaCaT human keratinocytes. The experiment is described as above. It counts as cell-based. To be noted: 24 h exposure, read-out: IC50 (μg/ml) HaCaT, TB. As for the experimental part: as §6
Experiment [13] relates to primary skin fibroblasts (FB). The description is as above. In kind it is cell-based. To be noted: Homo sapiens, Skin fibroblast, 24 h exposure, read-out: IC50 (μg/ml) FB, TB. As for the experimental part:
as §6

Experiment [14] concerns WM164 human melanoma cells. The description is as above. It counts as cell-based. To be noted: 24 h exposure, read-out: IC50 (μg/ml) WM164, TB. As for the experimental part: as §6

≈ marks a conversion by molar mass, not a printed value.

On to `CCOCCOCCO` [Transcutol®, diethylene glycol monoethyl ether], for which, in experiment [1], the “IC50, MTT endpoint” value is 34 µg/mL (≈ 253 µM). Also, the IC50 in [2] amounted to 3.55 µg/mL (≈ 26.5 µM); in experiment [3] it was 5.01 µg/mL (≈ 37.3 µM); in experiment [4] it was 2.91 µg/mL (≈ 21.7 µM); in experiment [5] it was 2.03 µg/mL (≈ 15.1 µM); in experiment [6], 3.49 µg/mL (≈ 26 µM); in [7], 4.88 µg/mL (≈ 36.4 µM). For the same compound, the IC50 in experiment [8] worked out at 3.32 µg/mL (≈ 24.7 µM); in experiment [9] it was 2.12 µg/mL (≈ 15.8 µM); in experiment [10] it was 13.7 µg/mL (≈ 102 µM); in experiment [11] it was 21.6 µg/mL (≈ 161 µM); in experiment [12], 6.57 µg/mL (≈ 49 µM); in experiment [13], 7.08 µg/mL (≈ 52.8 µM). Further, the IC50 in [14] was determined as 14.6 µg/mL (≈ 108 µM).
